Reference: patent US10889596B2, “Beta-amino pateamine a derivatives and methods for treating chronic lymphocytic leukemia” (The Texas A&M University System, priority 2016, dated 2021)
Values joined by “and” are separate entries in the source; they are usually repeats but may differ in a detail not shown here. Equal entries are not always repeated. Where two headings read alike, the source gives them in different places.

Experiments:
primary CLL cells = experiment: Toxicity/apoptosis in primary CLL cells, annexin V/PI double staining and flow cytometry; format: cell-based, human; conditions: for influence of human plasma content on potency: RPMI with 10% fetal bovine serum, 10% or 50% patient plasma
Method: (§1) The mechanism of action of DMDAPatA was studied in multiple primary CLL samples (FIG. 3A). […] CLL cells were incubated with DMDAPatA for 4 and 24 h then pulse labeled with [^3H]leucine for 1 h. The amount of [^3H]leucine incorporation into the acid insoluble materials (DNA, RNA and proteins) was measured by scintillation counter. […] This is consistent in 3 samples as quantitated in FIG. 3C. The Bcl-2 level was not affected by DMDAPatA, which is consistent with its longer half-life (FIG. 3C). […] MOMP facilitates the release of cytochrome c from mitochondria to form the apoptosome, which activated caspase-3 and induced apoptosis. As PARP is a substrate of caspase-3, an increase of cleaved PARP in FIG. 3C indicated activation of caspase 3. Apoptosis was measured by annexin V and propodium iodide (PI) double staining followed by flow cytometry.
(§2) To screen for PatA analogs with greater potency and less plasma protein binding, the toxicity of the analogs to primary CLL cells was measured after 24 of incubation by annexin/PI double staining followed by flow cytometry. This was compared between CLL cells cultured in media supplemented with either 10% FBS or patient plasma to evaluate the plasma influence. Plasma protein binding was assessed using the equilibrium dialysis method (FIG. 7B).

[1] = system: B cells from normal donors; experiment: Cellular toxicity to B cells from normal donors; format: cell-based, human
Source text: (§3) To predict the therapeutic window of the PatA analogs, their cellular toxicity was compared to CLL cells and to B and T cells from normal donors (FIGS. 8A and 8B). […] PatA was originally identified as a biological probe that inhibits T cell activation, consistent with its toxicity to T cells.

[2] = system: T cells from normal donors; experiment: Cellular toxicity to T cells from normal donors; format: cell-based, human
Source text: as §3

[3] = system: P388 murine leukemia cells; conditions: read-out: IC50, cytotoxic activity; cited from earlier work
[4] = Plasma protein binding, equilibrium dialysis; format: in vitro ADME, human
Method: as §2
In this example, the plasma protein binding assay used to provide the plasma protein binding data is described.
The assay includes the following steps.
1. Frozen plasma was thawed and centrifuged at 1120 g for 10 min to remove any particulates. The plasma was decanted, the pH was measured and, if required, was adjusted to pH7.4 with lactic acid.
2. All compounds were prepared at 10 mM concentration in DMSO. The solutions were carefully vortexed to ensure the compounds dissolved. The 10 mM DMSO solutions were diluted to 500 μM MeOH solutions (5+95 μl).
3. In a 2 mL 96-well plate (DWP), 1000 μL of plasma was pipetted into each well in Columns 1-4.
4. 10 μL of the 500 μM compound solution was pipetted to 1000 μL of corresponding plasma. (The final DMSO=0.05%). The solution was capped and carefully vortexed for 5 min.
5. 200 μL of PBS buffer was added to each receiver well of the dialysis plate (buffer was added to the Receiver first).
6. The bottom of dialysis plate was capped and turned over to the orange donor side (top) of dialysis plate.
7. The orange donor side of the dialysis plate was uncapped and 200 μL of the 10 μM drug/plasma samples were transferred from the 2 ml 96-DWP to the corresponding donor wells in the dialysis plate. The orange donor side of the dialysis plate was then capped.
8. The dialysis plate was placed onto the plate rotator in a 37° C. oven and incubated at 37° C. with a rotation speed 20 rpm for 22 hr.
9. To a 1 mL 96-DWP, 50 μL/well of the 5 μM drug/plasma samples was pipetted from the 2 mL 96-DWP in triplicate. 50 μL/well of PBS and then 300 μL of ACN/IS was added. The plate was kept at 4° C. This plate serves as the recovery plate.
10. Two 1 mL 96-DWP were prepared and marked as Donor Plate and Receiver Plate.
11. The dialysis plate was removed from the 37° C. oven.
12. The caps were removed from the donor side of the dialysis plate.
13. 50 μL of samples were pipetted from the donor side of the dialysis plate and added into the 96-DWP Donor Plate. 50 μL of PBS buffer was added into the 96-DWP Donor Plate.
14. The donor side of the dialysis plate was capped and turned over. Caps were removed from the Receiver side wells. 50 uL of samples were pipetted from the Receiver side of the dialysis plate and added to the 96-DWP Receiver Plate. […]
23. The samples in the Receiver Plate, Donor Plate, and Recovery Plate were analyzed by LC/MS/MS […]

[5] = system: protein synthesis in CLL cells; experiment: [3H]leucine incorporation analysis of protein synthesis in CLL cells; format: cell-based, human; conditions: CLL cells incubated 4 and 24 h, pulse labeled 1 h
Method: as §1
(§4) To confirm that the analogs retain the inhibition on protein synthesis, leucine incorporation analysis was performed on the analogs (FIG. 9A) and compared to DMDAPatA and PatA.

Mcl-1 = experiment: Immunoblot of Mcl-1 level in CLL cells; format: cell-based, human; conditions: CLL samples
Method: as §1, §4

Bcl-2 = experiment: Immunoblot of Bcl-2 level in CLL cells; format: cell-based, human; conditions: CLL samples
Method: as §1

[6] = Stability of DMDAPatA in RPMI, FBS and human plasma; format: in vitro ADME; conditions: read-out: Half-life time (converted)
Method: These experiments were performed in CLL cells cultured in media supplemented with 10% patient plasma. While mimicking the in vivo environment, we also found this condition beneficial in maintaining cell survival. One potential reason for the reduced potency in the presence of human plasma is stability. To test this theory, the stability of DMDAPatA was studied in FBS and human plasma at two different concentrations.

[7] = system: models of human leukemia and melanoma; conditions: mice; cited from earlier work
[8] = Homo sapiens, CLL cell, primary CLL cells, media with 10% FBS, 24 incubation, read-out: IC50 (μM) 10% FBS
[9] = Homo sapiens, CLL cell, primary CLL cells, media with 10% patient plasma, 24 incubation, read-out: IC50 (μM) 10% Plasma
[10] = primary CLL cells, media with 10% FBS, 24 incubation, read-out: IC50 (μM) 10% FBS
[11] = primary CLL cells, media with 10% patient plasma, 24 incubation, read-out: IC50 (μM) 10% Plasma
[12] = RPMI medium without serum, Pure RPMI

In the case of `CC(/C=C/C(C)=C/[C@@H]1Cc2nc(cs2)[C@@H](C)C[C@@H](N)CC(=O)O[C@@H](C)C/C(C)=C/C=C\C(=O)O1)=C\CN(C)C` [PatA, Pateamine A], the IC50 (primary CLL cells; [8]) is reported as 0.2 µM, the IC50 (primary CLL cells; [9]) is reported as 0.2 µM and the “influence of human plasma content on potency” value (primary CLL cells) is reported as “not as influential”. For the same compound, the “toxicity to normal B cells compared with CLL cells” value [1] was “similarly toxic to CLL cells as well as normal B and T cells”, the “toxicity to normal T cells compared with CLL cells” value [2] was “similarly toxic to CLL cells as well as normal B and T cells” and the IC50 [3] was 0.00027 µM.
`CC(=O)NC1CCc2csc(n2)CC(C=C(C)C=CC(C)=CCN(C)C)OC(=O)C=CC=C(C)CC(C)OC(=O)C1` [MZ732, N-((12Z,3S,6Z,8E,11S,15R)-3-((1E,3E,5E)-7-(dimethylamino)-2,5-dimethylhepta-1,3,5-trien-1-yl)-9,11-dimethyl-5,13-dioxo-4,12-dioxa-1(2,4)-thiazolacycloheptadecaphane-6,8-dien-15-yl)acetamide] showed an IC50 (primary CLL cells; [10]) of 4.58 µM and an IC50 (primary CLL cells; [11]) of 6.8 µM.
With `CC(/C=C/C(C)=C/[C@@H]1Cc2nc(cs2)CC[C@@H](N)CC(=O)O[C@@H](C)C/C(C)=C/C=C\C(=O)O1)=C\CN(C)C` [OR-IV-234, (12Z,3S,6Z,8E,11S,15R)-15-amino-3-((1E,3E,5E)-7-(dimethylamino)-2,5-dimethylhepta-1,3,5-trien-1-yl)-9,11-dimethyl-4,12-dioxa-1(2,4)-thiazolacycloheptadecaphane-6,8-diene-5,13-dione] the IC50 (primary CLL cells; [10]) was 0.33 µM, the IC50 (primary CLL cells; [11]) was 0.35 µM and the “plasma protein binding (PPB) compared with PatA and DMDAPatA” value [4] was “much lower plasma protein binding”. The recovery in plasma [4] was “modest recovery”.
Work on “1,1,1-Trichloro-2-methylpropan-2-yl ((12Z,3S,6Z,8E,11S,15R)-3-((1E,3E,5E)-7-(dimethyl amino)-2-methylhepta-1,3,5-trien-1-yl)-9,11-dimethyl-5,13-dioxo-4,12-dioxa-1(2,4)-thiazolacycloheptadecaphane-6,8-dien-15-yl)carbamate [OR-IV-211]” yielded an IC50 (primary CLL cells; [10]) of 3.5 µM and an IC50 (primary CLL cells; [11]) of 6.65 µM.
With `CC(/C=C/C(C)=C/[C@@H]1Cc2nc(cs2)CCCCC(=O)O[C@@H](C)C/C(C)=C/C=C\C(=O)O1)=C\CN(C)C` [DMDAPatA, Des-methyl, des-amino Pateamine A] the “potency relative to PatA (times less potent)” value (primary CLL cells; CLL cells, media with 10% patient plasma) was “about 30 times”, the “IC50 in samples with favorable versus poor prognostic characteristics” value (primary CLL cells; CLL patient samples by prognostic group) was “no significant differences” and the IC50 (primary CLL cells; Homo sapiens, CLL cell, measured in 13 CLL samples, read-out: average IC50) was 2.8 µM. For the same compound, the IC50 (primary CLL cells; [8]) was 0.65 µM, the IC50 (primary CLL cells; [9]) was 6.42 µM and the “influence of human plasma content on potency” value (primary CLL cells) was “greatly reduced the potency”. The “inhibition of protein synthesis ([3H]leucine incorporation)” value [5] was “inhibit protein synthesis”, the Mcl-1 level (Mcl-1) was “reduced the short-lived anti-apoptotic protein Mcl-1” and the Bcl-2 level (Bcl-2) was “not affected”. The half-life at 1 µM ([6]; Fetal Bovine Serum) was 16 h, the half-life at 10 µM ([6]; Fetal Bovine Serum) was 11.5 h and the half-life at 1 µM ([6]; Human Plasma) was 18 h. It also gave a half-life at 10 µM ([6]; Human Plasma) of 14 h, a half-life at 1 µM [6, 12] of 3 h and a half-life at 10 µM [6, 12] of 3.2 h. The recovery in plasma [4] was “low recovery”, the plasma protein bound ([4]; human plasma) was 99.7% and > 99% and the “activity in xenograft models” value [7] was “significant tumor reduction”.
